Measurements published in patent US4120954A, “2,2',2"-[S-Phenenyltris(carbonylimino) ]tris-2-deoxy-D-glucopyranose and salts thereof” (American Cyanamid Company, priority 1977, dated 1978).

Test system: shunt pathway
Test: Test Code 036 (C-Shunt inhibitor): lysis of fragile human erythrocytes in autologous serum via shunt pathway activated by cobra venom factor
Assay type: cell-based
Conditions: appropriate dilutions of test compound
Description: An active inhibitor protects C2 from C1 and C4; (ii) Test, Code 035 (c3-C9 inhibitor) -- This test determines the ability of the late components of human complement (C3-C9) to lyse EAC 142 in the presence of appropriate dilutions of the test compound. An active inhibitor protects EAC 142 from lysis by human C3-C9; (iii) Test, Code 036 (C-Shunt inhibitor) -- In this test human erythrocytes rendered fragile are lysed in autologous serum via the shunt pathway activated by cobra venom factor in the presence of appropriate dilutions of the test compound. Inhibition of the shunt pathway results in failure of lysis; (iv) Forssman Vasculitis Test -- Here, the well known complement dependent lesion, Forssman vasculitis, is produced in guinea pigs by intradermal injection of rabbit anti-Forssman antiserum. […]

## O=C(N[C@H]1C(OS(=O)(=O)O)O[C@H](COS(=O)(=O)O)[C@@H](OS(=O)(=O)O)[C@@H]1OS(=O)(=O)O)c1cc(C(=O)N[C@H]2C(OS(=O)(=O)O)O[C@H](COS(=O)(=O)O)[C@@H](OS(=O)(=O)O)[C@@H]2OS(=O)(=O)O)cc(C(=O)N[C@H]2C(OS(=O)(=O)O)O[C@H](COS(=O)(=O)O)[C@@H](OS(=O)(=O)O)[C@@H]2OS(=O)(=O)O)c1 (stereo partly drawn) [2,2',2"-[s-Phenenyltris(carbonylimino)]tris-2-deoxy-D-glucopyranose dodecakis (H-sulfate) dodecasalt with trimethylamine]
  Shunt Inhibition 036 Wells: +3 Wells
